From PubChem BioAssay (NCI)
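Interpolation was linear, between the two tested concentrations surrounding the appropriate level; five concentrations were tested over 48 hours in 96-well plates. Here, GI50 denotes the concentration required for 50% inhibition of growth. TGI is the concentration that stops growth completely.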

Each compound was assayed on 786-0 renal (assay: inhibition of tumour cell growth, NCI panel, 48 h).
For `CCn1c(-c2nonc2N)nc2cnc(Oc3cccc(NC(=O)c4ccc(N(C)C)cc4)c3)cc21`, the GI50 was 21.6 µM and the TGI was over 25 µM.
`Cc1cc(S(N)(=O)=O)c(S/C(=N\NS(=O)(=O)c2ccccc2)c2ccc(Cl)cc2)cc1Cl` gave a GI50 of over 100 µM and a TGI of over 100 µM.
Work on `COc1ccc2c(c1)C(=O)c1c-2c(OCCN(C)C)nc2cc(OC)c(OC)cc12` yielded a GI50 of 13 µM and a TGI of 27.2 µM.
Compound `COc1ccc(COCC[C@H](C)OC2OC(CO)C(O)C(O)C2O)cc1` (stereo partly drawn) has a TGI of over 100 µM.

The compounds below were run on A498 renal (assay: inhibition of tumour cell growth, NCI panel, 48 h).
In the case of `CCn1c(-c2nonc2N)nc2cnc(Oc3cccc(NC(=O)c4ccc(N(C)C)cc4)c3)cc21`, the GI50 is reported as 4.48 µM and the TGI is reported as over 25 µM.
`Cc1cc(S(N)(=O)=O)c(S/C(=N\NS(=O)(=O)c2ccccc2)c2ccc(Cl)cc2)cc1Cl` showed a GI50 of 43 µM and a TGI of over 100 µM.
For `COc1ccc2c(c1)C(=O)c1c-2c(OCCN(C)C)nc2cc(OC)c(OC)cc12`, the GI50 was 13.2 µM and the TGI was 99.1 µM.
With `COc1ccc(COCC[C@H](C)OC2OC(CO)C(O)C(O)C2O)cc1` (stereo partly drawn) the TGI was over 100 µM.

Each compound was assayed on A549 NSCLC (assay: inhibition of tumour cell growth, NCI panel, 48 h).
Compound `CCn1c(-c2nonc2N)nc2cnc(Oc3cccc(NC(=O)c4ccc(N(C)C)cc4)c3)cc21` has a GI50 of 2.12 µM and a TGI of over 25 µM.
In the case of `Cc1cc(S(N)(=O)=O)c(S/C(=N\NS(=O)(=O)c2ccccc2)c2ccc(Cl)cc2)cc1Cl`, the GI50 is reported as over 100 µM and the TGI is reported as over 100 µM.
In the case of `COc1ccc2c(c1)C(=O)c1c-2c(OCCN(C)C)nc2cc(OC)c(OC)cc12`, the GI50 is reported as 4.2 µM and the TGI is reported as 21.5 µM.
In the case of `COc1ccc(COCC[C@H](C)OC2OC(CO)C(O)C(O)C2O)cc1` (stereo partly drawn), the TGI is reported as over 100 µM.

These compounds were tested on ACHN renal (assay: inhibition of tumour cell growth, NCI panel, 48 h).
In the case of `CCn1c(-c2nonc2N)nc2cnc(Oc3cccc(NC(=O)c4ccc(N(C)C)cc4)c3)cc21`, the GI50 is reported as over 25 µM and the TGI is reported as over 25 µM.
`Cc1cc(S(N)(=O)=O)c(S/C(=N\NS(=O)(=O)c2ccccc2)c2ccc(Cl)cc2)cc1Cl` was tested, and the GI50 was over 100 µM and the TGI was over 100 µM.
Compound `COc1ccc2c(c1)C(=O)c1c-2c(OCCN(C)C)nc2cc(OC)c(OC)cc12` has a GI50 of 5.21 µM and a TGI of 19.3 µM.
Compound `COc1ccc(COCC[C@H](C)OC2OC(CO)C(O)C(O)C2O)cc1` (stereo partly drawn) has a TGI of over 100 µM.

What follows are compounds tested on BT-549 breast (assay: inhibition of tumour cell growth, NCI panel, 48 h).
Work on `CCn1c(-c2nonc2N)nc2cnc(Oc3cccc(NC(=O)c4ccc(N(C)C)cc4)c3)cc21` yielded a GI50 of 0.859 µM and a TGI of over 25 µM.
For `Cc1cc(S(N)(=O)=O)c(S/C(=N\NS(=O)(=O)c2ccccc2)c2ccc(Cl)cc2)cc1Cl`, the GI50 was over 100 µM and the TGI was over 100 µM.
For `COc1ccc2c(c1)C(=O)c1c-2c(OCCN(C)C)nc2cc(OC)c(OC)cc12`, the GI50 was 26.5 µM and the TGI was over 100 µM.
For `COc1ccc(COCC[C@H](C)OC2OC(CO)C(O)C(O)C2O)cc1` (stereo partly drawn), the TGI was over 100 µM.

Each compound was assayed on CAKI-1 renal (assay: inhibition of tumour cell growth, NCI panel, 48 h).
`CCn1c(-c2nonc2N)nc2cnc(Oc3cccc(NC(=O)c4ccc(N(C)C)cc4)c3)cc21` gave a GI50 of 0.688 µM and a TGI of over 25 µM.
For `Cc1cc(S(N)(=O)=O)c(S/C(=N\NS(=O)(=O)c2ccccc2)c2ccc(Cl)cc2)cc1Cl`, the GI50 was over 100 µM and the TGI was over 100 µM.
Compound `COc1ccc2c(c1)C(=O)c1c-2c(OCCN(C)C)nc2cc(OC)c(OC)cc12` has a GI50 of 3.68 µM and a TGI of 31.6 µM.
For `COc1ccc(COCC[C@H](C)OC2OC(CO)C(O)C(O)C2O)cc1` (stereo partly drawn), the TGI was over 100 µM.

These compounds were tested on CCRF-CEM leukemia (assay: inhibition of tumour cell growth, NCI panel, 48 h).
Compound `CCn1c(-c2nonc2N)nc2cnc(Oc3cccc(NC(=O)c4ccc(N(C)C)cc4)c3)cc21` has a GI50 of 1.82 µM and a TGI of over 25 µM.
`Cc1cc(S(N)(=O)=O)c(S/C(=N\NS(=O)(=O)c2ccccc2)c2ccc(Cl)cc2)cc1Cl` showed a GI50 of 99.7 µM and a TGI of over 100 µM.
Compound `COc1ccc2c(c1)C(=O)c1c-2c(OCCN(C)C)nc2cc(OC)c(OC)cc12` has a GI50 of 0.0714 µM and a TGI of 3.91 µM.
Work on `COc1ccc(COCC[C@H](C)OC2OC(CO)C(O)C(O)C2O)cc1` (stereo partly drawn) yielded a TGI of over 100 µM.

The compounds below were run on COLO 205 colon (assay: inhibition of tumour cell growth, NCI panel, 48 h).
Compound `CCn1c(-c2nonc2N)nc2cnc(Oc3cccc(NC(=O)c4ccc(N(C)C)cc4)c3)cc21` has a GI50 of over 13.5 µM and a TGI of over 25 µM.
Compound `Cc1cc(S(N)(=O)=O)c(S/C(=N\NS(=O)(=O)c2ccccc2)c2ccc(Cl)cc2)cc1Cl` has a GI50 of 97.8 µM and a TGI of over 100 µM.
Work on `COc1ccc2c(c1)C(=O)c1c-2c(OCCN(C)C)nc2cc(OC)c(OC)cc12` yielded a GI50 of 11.5 µM and a TGI of over 100 µM.
`COc1ccc(COCC[C@H](C)OC2OC(CO)C(O)C(O)C2O)cc1` (stereo partly drawn) gave a TGI of over 100 µM.

The compounds below were run on DU-145 prostate (assay: inhibition of tumour cell growth, NCI panel, 48 h).
In the case of `CCn1c(-c2nonc2N)nc2cnc(Oc3cccc(NC(=O)c4ccc(N(C)C)cc4)c3)cc21`, the GI50 is reported as over 21.7 µM and the TGI is reported as over 25 µM.
`Cc1cc(S(N)(=O)=O)c(S/C(=N\NS(=O)(=O)c2ccccc2)c2ccc(Cl)cc2)cc1Cl` showed a GI50 of over 100 µM and a TGI of over 100 µM.
Work on `COc1ccc2c(c1)C(=O)c1c-2c(OCCN(C)C)nc2cc(OC)c(OC)cc12` yielded a GI50 of 2.93 µM and a TGI of 34.7 µM.
With `COc1ccc(COCC[C@H](C)OC2OC(CO)C(O)C(O)C2O)cc1` (stereo partly drawn) the TGI was over 100 µM.

What follows are compounds tested on EKVX NSCLC (assay: inhibition of tumour cell growth, NCI panel, 48 h).
For `CCn1c(-c2nonc2N)nc2cnc(Oc3cccc(NC(=O)c4ccc(N(C)C)cc4)c3)cc21`, the GI50 was 2.87 µM and the TGI was over 25 µM.
`Cc1cc(S(N)(=O)=O)c(S/C(=N\NS(=O)(=O)c2ccccc2)c2ccc(Cl)cc2)cc1Cl` was tested, and the GI50 was over 100 µM and the TGI was over 100 µM.
Work on `COc1ccc2c(c1)C(=O)c1c-2c(OCCN(C)C)nc2cc(OC)c(OC)cc12` yielded a GI50 of 22.6 µM and a TGI of over 100 µM.
Work on `COc1ccc(COCC[C@H](C)OC2OC(CO)C(O)C(O)C2O)cc1` (stereo partly drawn) yielded a TGI of over 100 µM.

The compounds below were run on HCC-2998 colon (assay: inhibition of tumour cell growth, NCI panel, 48 h).
With `CCn1c(-c2nonc2N)nc2cnc(Oc3cccc(NC(=O)c4ccc(N(C)C)cc4)c3)cc21` the GI50 was over 25 µM and the TGI was over 25 µM.
Compound `COc1ccc2c(c1)C(=O)c1c-2c(OCCN(C)C)nc2cc(OC)c(OC)cc12` has a GI50 of 8.85 µM and a TGI of 49.9 µM.
With `COc1ccc(COCC[C@H](C)OC2OC(CO)C(O)C(O)C2O)cc1` (stereo partly drawn) the TGI was over 100 µM.

Each compound was assayed on HCT-116 colon (assay: inhibition of tumour cell growth, NCI panel, 48 h).
Work on `CCn1c(-c2nonc2N)nc2cnc(Oc3cccc(NC(=O)c4ccc(N(C)C)cc4)c3)cc21` yielded a GI50 of 11.3 µM and a TGI of over 25 µM.
`Cc1cc(S(N)(=O)=O)c(S/C(=N\NS(=O)(=O)c2ccccc2)c2ccc(Cl)cc2)cc1Cl` gave a GI50 of 77 µM and a TGI of over 100 µM.
`COc1ccc2c(c1)C(=O)c1c-2c(OCCN(C)C)nc2cc(OC)c(OC)cc12` was tested, and the GI50 was 1.08 µM and the TGI was 19.6 µM.
Work on `COc1ccc(COCC[C@H](C)OC2OC(CO)C(O)C(O)C2O)cc1` (stereo partly drawn) yielded a TGI of over 100 µM.

What follows are compounds tested on HCT-15 colon (assay: inhibition of tumour cell growth, NCI panel, 48 h).
With `CCn1c(-c2nonc2N)nc2cnc(Oc3cccc(NC(=O)c4ccc(N(C)C)cc4)c3)cc21` the GI50 was 8.55 µM and the TGI was over 25 µM.
For `Cc1cc(S(N)(=O)=O)c(S/C(=N\NS(=O)(=O)c2ccccc2)c2ccc(Cl)cc2)cc1Cl`, the GI50 was over 100 µM and the TGI was over 100 µM.
Work on `COc1ccc2c(c1)C(=O)c1c-2c(OCCN(C)C)nc2cc(OC)c(OC)cc12` yielded a GI50 of 9.67 µM and a TGI of 23.6 µM.
`COc1ccc(COCC[C@H](C)OC2OC(CO)C(O)C(O)C2O)cc1` (stereo partly drawn) was tested, and the TGI was over 100 µM.

Each compound was assayed on HL-60(TB) leukemia (assay: inhibition of tumour cell growth, NCI panel, 48 h).
Work on `CCn1c(-c2nonc2N)nc2cnc(Oc3cccc(NC(=O)c4ccc(N(C)C)cc4)c3)cc21` yielded a GI50 of over 25 µM and a TGI of over 25 µM.
In the case of `Cc1cc(S(N)(=O)=O)c(S/C(=N\NS(=O)(=O)c2ccccc2)c2ccc(Cl)cc2)cc1Cl`, the GI50 is reported as 50.6 µM and the TGI is reported as over 100 µM.
With `COc1ccc2c(c1)C(=O)c1c-2c(OCCN(C)C)nc2cc(OC)c(OC)cc12` the GI50 was 51.6 µM and the TGI was over 100 µM.
`COc1ccc(COCC[C@H](C)OC2OC(CO)C(O)C(O)C2O)cc1` (stereo partly drawn) was tested, and the TGI was over 100 µM.

What follows are compounds tested on HOP-62 NSCLC (assay: inhibition of tumour cell growth, NCI panel, 48 h).
For `CCn1c(-c2nonc2N)nc2cnc(Oc3cccc(NC(=O)c4ccc(N(C)C)cc4)c3)cc21`, the GI50 was over 25 µM and the TGI was over 25 µM.
